Test results published in PubChem BioAssay AID1963971 (Molecular Pharmacology Branch, DTP, NCI, 2024).
pIC50: −log10 of the molar value.

System: 953936-095-R-J2-PDC spheroids with HUVEC/MSC, viability
Experiment: Anticancer human tumor 953936-095-R-J2-PDC patient-derived cervical squamous cell carcinoma cell line growth inhibition [PI3K]
Details: for pIC50: curve of first compound; for viability, T/C: stronger effect = lower value
Outline: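 Complex 3D spheroids (cancer cells + endothelial HUVEC + mesenchymal stem cells); drug pairs of targeted agent x inavolisib/alpelisib/duvelisib/copanlisib; half-log series from ~Cmax, max 10 microM if Cmax unknown; endpoint viability.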
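Note: spheroids exposed to compounds for seven days before read-out.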

Compound: CNC(=O)c1ccc(N2C(=S)N(c3ccc(C#N)c(C(F)(F)F)c3)C(=O)C2(C)C)cc1F + Cc1nc(NC(=O)N2CCCC2C(N)=O)sc1-c1ccnc(C(C)(C)C(F)(F)F)c1
- pIC50 (second compound 0.0316 µM): < 5.00
- pIC50 (second compound 0.1 µM): < 5.00
- pIC50 (second compound 0.316 µM): < 5.00
- pIC50 (second compound 1 µM): 7.28
- pIC50 (second compound 3.16 µM): > 7.50
- pIC50 (second compound 10 µM): > 7.50
- viability, T/C (second compound 0.0316 µM, first compound 0.0316 µM): 85.4%
- viability, T/C (second compound 0.0316 µM, first compound 0.1 µM): 92.7%
- viability, T/C (second compound 0.0316 µM, first compound 0.316 µM): 108%
- viability, T/C (second compound 0.0316 µM, first compound 1 µM): 105%
- viability, T/C (second compound 0.0316 µM, first compound 3.16 µM): 83.5%
- viability, T/C (second compound 0.0316 µM, first compound 10 µM): 79.7%
- viability, T/C (second compound 0.1 µM, first compound 0.0316 µM): 81.2%
- viability, T/C (second compound 0.1 µM, first compound 0.1 µM): 93%
- viability, T/C (second compound 0.1 µM, first compound 0.316 µM): 78.3%
- viability, T/C (second compound 0.1 µM, first compound 1 µM): 76.9%
- viability, T/C (second compound 0.1 µM, first compound 3.16 µM): 74.7%
- viability, T/C (second compound 0.1 µM, first compound 10 µM): 73.9%
- viability, T/C (second compound 0.316 µM, first compound 0.0316 µM): 64.1%
- viability, T/C (second compound 0.316 µM, first compound 0.1 µM): 65.9%
- viability, T/C (second compound 0.316 µM, first compound 0.316 µM): 65.3%
- viability, T/C (second compound 0.316 µM, first compound 1 µM): 59.9%
- viability, T/C (second compound 0.316 µM, first compound 3.16 µM): 62.8%
- viability, T/C (second compound 0.316 µM, first compound 10 µM): 54.3%
- viability, T/C (second compound 1 µM, first compound 0.0316 µM): 54.1%
- viability, T/C (second compound 1 µM, first compound 0.1 µM): 44.2%
- viability, T/C (second compound 1 µM, first compound 0.316 µM): 44.3%
- viability, T/C (second compound 1 µM, first compound 1 µM): 48.6%
- viability, T/C (second compound 1 µM, first compound 3.16 µM): 41.4%
- viability, T/C (second compound 1 µM, first compound 10 µM): 38.1%
- viability, T/C (second compound 3.16 µM, first compound 0.0316 µM): 26.6%
- viability, T/C (second compound 3.16 µM, first compound 0.1 µM): 29.8%
- viability, T/C (second compound 3.16 µM, first compound 0.316 µM): 24.4%
- viability, T/C (second compound 3.16 µM, first compound 1 µM): 25.5%
- viability, T/C (second compound 3.16 µM, first compound 3.16 µM): 30%
- viability, T/C (second compound 3.16 µM, first compound 10 µM): 24.8%
- viability, T/C (second compound 10 µM, first compound 0.0316 µM): 12.2%
- viability, T/C (second compound 10 µM, first compound 0.1 µM): 11.2%
- viability, T/C (second compound 10 µM, first compound 0.316 µM): 12.1%
- viability, T/C (second compound 10 µM, first compound 1 µM): 11%
- viability, T/C (second compound 10 µM, first compound 3.16 µM): 11.6%
- viability, T/C (second compound 10 µM, first compound 10 µM): 10.7%

Compound: Cn1cnc2c(F)c(Nc3ccc(Br)cc3Cl)c(C(=O)NOCCO)cc21 + Cc1nc(NC(=O)N2CCCC2C(N)=O)sc1-c1ccnc(C(C)(C)C(F)(F)F)c1
- pIC50 (second compound 0.0316 µM): 6.13
- pIC50 (second compound 0.1 µM): 6.51
- pIC50 (second compound 0.316 µM): 7.43
- pIC50 (second compound 1 µM): > 8.02
- pIC50 (second compound 3.16 µM): > 8.02
- pIC50 (second compound 10 µM): > 8.02
- viability, T/C (second compound 0.0316 µM, first compound 0.00949 µM): 85.7%
- viability, T/C (second compound 0.0316 µM, first compound 0.03 µM): 87.1%
- viability, T/C (second compound 0.0316 µM, first compound 0.0949 µM): 74.3%
- viability, T/C (second compound 0.0316 µM, first compound 0.3 µM): 59.4%
- viability, T/C (second compound 0.0316 µM, first compound 0.949 µM): 49.5%
- viability, T/C (second compound 0.0316 µM, first compound 3 µM): 31.9%
- viability, T/C (second compound 0.1 µM, first compound 0.00949 µM): 78.1%
- viability, T/C (second compound 0.1 µM, first compound 0.03 µM): 70.1%
- viability, T/C (second compound 0.1 µM, first compound 0.0949 µM): 52.7%
- viability, T/C (second compound 0.1 µM, first compound 0.3 µM): 51.4%
- viability, T/C (second compound 0.1 µM, first compound 0.949 µM): 47.4%
- viability, T/C (second compound 0.1 µM, first compound 3 µM): 28.9%
- viability, T/C (second compound 0.316 µM, first compound 0.00949 µM): 61.3%
- viability, T/C (second compound 0.316 µM, first compound 0.03 µM): 50.8%
- viability, T/C (second compound 0.316 µM, first compound 0.0949 µM): 43%
- viability, T/C (second compound 0.316 µM, first compound 0.3 µM): 33.9%
- viability, T/C (second compound 0.316 µM, first compound 0.949 µM): 26.1%
- viability, T/C (second compound 0.316 µM, first compound 3 µM): 20.1%
- viability, T/C (second compound 1 µM, first compound 0.00949 µM): 44%
- viability, T/C (second compound 1 µM, first compound 0.03 µM): 35%
- viability, T/C (second compound 1 µM, first compound 0.0949 µM): 24.9%
- viability, T/C (second compound 1 µM, first compound 0.3 µM): 24.3%
- viability, T/C (second compound 1 µM, first compound 0.949 µM): 12.1%
- viability, T/C (second compound 1 µM, first compound 3 µM): 7.18%
- viability, T/C (second compound 3.16 µM, first compound 0.00949 µM): 21.1%
- viability, T/C (second compound 3.16 µM, first compound 0.03 µM): 15.3%
- viability, T/C (second compound 3.16 µM, first compound 0.0949 µM): 11.3%
- viability, T/C (second compound 3.16 µM, first compound 0.3 µM): 7.62%
- viability, T/C (second compound 3.16 µM, first compound 0.949 µM): 5.36%
- viability, T/C (second compound 3.16 µM, first compound 3 µM): 1.67%
- viability, T/C (second compound 10 µM, first compound 0.00949 µM): 6.2%
- viability, T/C (second compound 10 µM, first compound 0.03 µM): 5.44%
- viability, T/C (second compound 10 µM, first compound 0.0949 µM): 4.18%
- viability, T/C (second compound 10 µM, first compound 0.3 µM): 2.71%
- viability, T/C (second compound 10 µM, first compound 0.949 µM): 1.25%
- viability, T/C (second compound 10 µM, first compound 3 µM): 0.42%
